Assay results reported in patent publication US9980927B2, “Use of tapentadol for inhibiting and/or treating depression and anxiety” (Gruenenthal GmbH, priority 2011, dated 2018).

Test system: patients with inadequately managed, severe chronic low back pain with or without a neuropathic pain component
Assay: Hospital Anxiety and Depression Scale (HADS) anxiety score; open-label phase IIIb trial, tapentadol prolonged release 50-250 mg bid for up to 12 weeks
Assay type: in vivo, human patients
Conditions: for HADS anxiety score, course: Baseline to Week 12
Description: As used herein, the “anxiety score” is a value determining the degree of the […]. The scale of anxiety scores covers the range from 0 to 21, wherein the degree of the anxiety is high in case of high values and low in case of low values. In a group of tested subjects, typically the mean or mediate values of anxiety scores are determined and referred to. The mean value is the sum of all anxiety scores divided by the number of subjects. The mediate value is the middle anxiety score in the set of determined scores. Preferably, the “anxiety score” is defined as in the experimental section.
A subgroup suffering from neuropathic pain due to lumbar radiculopathy was also investigated.
This was a multicenter, multinational, open-label, effectiveness phase IIIb trial to evaluate effectiveness and safety of tapentadol prolonged release treatment in patients with inadequately managed, severe chronic low back pain with or without a neuropathic pain component. Patients taking WHO Step II analgesics discontinued those analgesics before starting study medication; patients taking Step I analgesics and/or centrally acting co-analgesics continued on the same dose. […] All patients received tapentadol prolonged release (50-250 mg bid) for up to 12 weeks (5-week titration period and a 7-week maintenance period). Tapentadol immediate release (IR) 50 mg (twice a day, hours apart) was permitted (combined total daily dose of tapentadol prolonged release and tapentadol IR, 500 mg/day). The primary efficacy endpoint was the change from Baseline to Week 6 (when tapentadol prolonged release doses were stable) in average pain intensity on the 11-point NRS-3 using the last observation carried forward (LOCF) for imputing missing scores. The painDETECT questionnaire was used to evaluate the likelihood of a neuropathic pain component of low back pain; patients were classified as painDETECT “negative,” “unclear,” or “positive.” The population of patients classified as painDETECT negative was limited to approximately 30% of the total population.
In the painDETECT positive trial population the “diagnosis of lumbar radiculopathy” was evaluated which was defined per study protocol according following criteria: • typical dermatomal pain (radiating beyond the knee towards the foot, pain evoked by stretching within distribution of the ischiadic/femoral nerve) • signs of root dysfunction: • such as sensory impairment, motor symptoms from compression of lumbar nerve root (L4, L5, S1). • and/or absent or diminished quadriceps femoris or triceps surae reflexes. • and/or quantitative sensory testing (QST) deficit and pain distribution present in the same dermatomal area.
All subjects completed Short Form-36 (SF-36) and EuroQol-5 Dimension (EQ-5D) questionnaires and the Hospital Anxiety and Depression Scale (HADS). The Patient Global Impression of Change (PGIC) and Clinical global impression of change (CGIC) were also used as secondary endpoints. For both tests, patients completed the statement, “since I began trial treatment, I would rate my overall condition as,” using 7 possible responses (“very much worse” to “very much improved”). Adverse events were recorded throughout the trial.
In the following • (i) N is the number of subjects of the specified diagnosis group, • (ii) n is the number of subjects with data available, • (iii) “Mean” is the mean score of the subjects, i.e. the sum of all scores is divided by the number of subjects, • (iv) SD is the standard deviation, • (v) “Median” is the median score of the subjects, i.e. the middle score in the set of scores, • (vi) “Range” is the range of scores of the subjects, i.e. the range defined by the lowest and the highest score of the set of scores. First, the depression scores are presented. The total number of subjects in the clinical study: N=175

[1] = Visit 1, defined neuropathic pain N=85
[2] = Visit 1, positive diagnosis of lumbar radiculopathy-neuropathic pain subset N=44
[3] = Visit 1, presumed neuropathic pain component N=41
[4] = Visit 1, presumed or defined neuropathic pain component N=126
[5] = Visit 1, subjects with nociceptive pain N=49
[6] = Visit 5, defined neuropathic pain N=85
[7] = Visit 5, positive diagnosis of lumbar radiculopathy-neuropathic pain subset N=44
[8] = Visit 5, presumed neuropathic pain component N=41
[9] = Visit 5, presumed or defined neuropathic pain component N=126
[10] = Visit 5, subjects with nociceptive pain N=49
[11] = Visit 6, defined neuropathic pain N=85
[12] = Visit 6, positive diagnosis of lumbar radiculopathy-neuropathic pain subset N=44
[13] = Visit 6, presumed neuropathic pain component N=41
[14] = Visit 6, presumed or defined neuropathic
[15] = Visit 6, presumed or defined neuropathic pain component N=126
[16] = Visit 6, subjects with nociceptive pain N=49
[17] = Visit 7, defined neuropathic pain N=85
[18] = Visit 7, positive diagnosis of lumbar radiculopathy-neuropathic pain subset N=44
[19] = Visit 7, presumed neuropathic pain component N=41
[20] = Visit 7, presumed or defined neuropathic pain component N=126
[21] = Visit 7, subjects with nociceptive pain N=49
[22] = Visit 8, defined neuropathic pain N=85
[23] = Visit 8, positive diagnosis of lumbar radiculopathy-neuropathic pain subset N=44
[24] = Visit 8, presumed neuropathic pain component N=41
[25] = Visit 8, presumed or defined neuropathic
[26] = Visit 8, presumed or defined neuropathic pain component N=126
[27] = Visit 8, subjects with nociceptive pain N=49
[28] = Visit 9, defined neuropathic pain N=85
[29] = Visit 9, positive diagnosis of lumbar radiculopathy-neuropathic pain subset N=44
[30] = Visit 9, presumed neuropathic pain component N=41
[31] = Visit 9, presumed or defined neuropathic pain component N=126
[32] = Visit 9, subjects with nociceptive pain N=49
[33] = Visit 10, defined neuropathic pain N=85
[34] = Visit 10, positive diagnosis of lumbar radiculopathy-neuropathic pain subset N=44
[35] = Visit 10, presumed neuropathic pain component N=41
[36] = Visit 10, presumed or defined neuropathic pain component N=126
[37] = Visit 10, subjects with nociceptive pain N=49
[38] = Visit 11, defined neuropathic pain N=85
[39] = Visit 11, positive diagnosis of lumbar radiculopathy-neuropathic pain subset N=44
[40] = Visit 11, presumed neuropathic pain component N=41
[41] = Visit 11, presumed or defined neuropathic pain component N=126
[42] = Visit 11, subjects with nociceptive pain N=49
[43] = Visit 12, defined neuropathic pain N=85
[44] = Visit 12, positive diagnosis of lumbar radiculopathy-neuropathic pain subset N=44
[45] = Visit 12, presumed neuropathic pain component N=41
[46] = Visit 12, presumed or defined neuropathic
[47] = Visit 12, presumed or defined neuropathic pain component N=126
[48] = Visit 12, subjects with nociceptive pain N=49

## CC[C@@H](c1cccc(O)c1)[C@@H](C)CN(C)C [tapentadol, (−)-(1R,2R)-3-(3-dimethylamino-1-ethyl-2-methyl-propyl)-phenol]
painDETECT negative
  HADS anxiety score, course: not significantly
painDETECT unclear/positive, P<0.0001 at Visit 12
  HADS anxiety score, course: improved steadily
Positive diagnosis of lumbar radiculopathy-neuropathic pain subset, p=0.0105 at Visit 12
  HADS anxiety score, course: improved steadily
[1]
  Anxiety score Mean (SD): 8.3 (4.01)
  Anxiety score Median: 8.0
[2]
  Anxiety score Mean (SD): 8.7 (3.64)
  Anxiety score Median: 9.0
[3]
  Anxiety score Mean (SD): 7.9 (4.52)
  Anxiety score Median: 7.0
[4]
  Anxiety score Mean (SD): 8.2 (4.16)
  Anxiety score Median: 8.0
[5]
  Anxiety score Mean (SD): 5.9 (4.19)
  Anxiety score Median: 6.0
Visit 1, total subjects N=175
  Anxiety score Mean (SD): 7.6 (4.28)
  Anxiety score Median: 7.0
[6]
  Anxiety score Mean (SD): 7.2 (3.89)
  Anxiety score Median: 8.0
[7]
  Anxiety score Mean (SD): 6.8 (3.39)
  Anxiety score Median: 7.5
[8]
  Anxiety score Mean (SD): 6.7 (4.22)
  Anxiety score Median: 7.0
[9]
  Anxiety score Mean (SD): 7.0 (3.98)
  Anxiety score Median: 7.0
[10]
  Anxiety score Mean (SD): 6.1 (3.80)
  Anxiety score Median: 5.0
Visit 5, total subjects N=175
  Anxiety score Mean (SD): 6.8 (3.94)
  Anxiety score Median: 7.0
Visit 6
  Anxiety score change from baseline Mean (SD): −1.6 (3.58)
  Anxiety score change from baseline Median: −1.0
Visit 6, defined neuropathic
  Anxiety score change from baseline Mean (SD): −1.4 (3.44)
  Anxiety score change from baseline Median: −1.0
[11]
  Anxiety score Mean (SD): 6.9 (3.66)
  Anxiety score Median: 6.0
Visit 6, lumbar radiculopathy
  Anxiety score change from baseline Mean (SD): −1.4 (3.88)
  Anxiety score change from baseline Median: −0.5
Visit 6, nociceptive
  Anxiety score change from baseline Mean (SD): −0.3 (2.93)
  Anxiety score change from baseline Median: 0.0
[12]
  Anxiety score Mean (SD): 7.1 (3.46)
  Anxiety score Median: 7.5
[13]
  Anxiety score Mean (SD): 6.9 (3.99)
  Anxiety score Median: 6.0
[14]
  Anxiety score change from baseline Mean (SD): −1.5 (3.47)
  Anxiety score change from baseline Median: −1.0
[15]
  Anxiety score Mean (SD): 6.9 (3.75)
  Anxiety score Median: 6.0
[16]
  Anxiety score Mean (SD): 5.8 (4.68)
  Anxiety score Median: 5.0
Visit 6, total
  Anxiety score change from baseline Mean (SD): −1.2 (3.36)
  Anxiety score change from baseline Median: −1.0
Visit 6, total subjects N=175
  Anxiety score Mean (SD): 6.6 (4.02)
  Anxiety score Median: 6.0
[17]
  Anxiety score Mean (SD): 6.1 (3.91)
  Anxiety score Median: 6.0
[18]
  Anxiety score Mean (SD): 6.1 (3.85)
  Anxiety score Median: 6.0
[19]
  Anxiety score Mean (SD): 5.9 (4.08)
  Anxiety score Median: 5.5
[20]
  Anxiety score Mean (SD): 6.0 (3.95)
  Anxiety score Median: 6.0
[21]
  Anxiety score Mean (SD): 5.6 (4.15)
  Anxiety score Median: 5.0
Visit 7, total subjects N=175
  Anxiety score Mean (SD): 5.9 (3.99)
  Anxiety score Median: 6.0
Visit 8
  Anxiety score change from baseline Mean (SD): −2.9 (3.11)
  Anxiety score change from baseline Median: −2.0
Visit 8, defined neuropathic
  Anxiety score change from baseline Mean (SD): −2.2 (3.77)
  Anxiety score change from baseline Median: −2.0
[22]
  Anxiety score Mean (SD): 6.0 (3.66)
  Anxiety score Median: 5.0
Visit 8, lumbar radiculopathy
  Anxiety score change from baseline Mean (SD): −2.4 (4.23)
  Anxiety score change from baseline Median: −1.0
Visit 8, nociceptive
  Anxiety score change from baseline Mean (SD): −0.7 (3.88)
  Anxiety score change from baseline Median: −1.0
[23]
  Anxiety score Mean (SD): 5.9 (3.74)
  Anxiety score Median: 5.0
[24]
  Anxiety score Mean (SD): 4.9 (4.04)
  Anxiety score Median: 4.0
[25]
  Anxiety score change from baseline Mean (SD): −2.4 (3.57)
  Anxiety score change from baseline Median: −2.0
[26]
  Anxiety score Mean (SD): 5.7 (3.80)
  Anxiety score Median: 5.0
[27]
  Anxiety score Mean (SD): 5.4 (4.40)
  Anxiety score Median: 4.0
Visit 8, total
  Anxiety score change from baseline Mean (SD): −1.9 (3.72)
  Anxiety score change from baseline Median: −2.0
Visit 8, total subjects N=175
  Anxiety score Mean (SD): 5.6 (3.95)
  Anxiety score Median: 5.0
[28]
  Anxiety score Mean (SD): 6.1 (3.99)
  Anxiety score Median: 5.0
[29]
  Anxiety score Mean (SD): 6.2 (4.01)
  Anxiety score Median: 5.0
[30]
  Anxiety score Mean (SD): 6.1 (5.10)
  Anxiety score Median: 6.0
[31]
  Anxiety score Mean (SD): 6.1 (4.32)
  Anxiety score Median: 5.0
[32]
  Anxiety score Mean (SD): 4.6 (3.34)
  Anxiety score Median: 4.0
Visit 9, total subjects N=175
  Anxiety score Mean (SD): 5.7 (4.10)
  Anxiety score Median: 4.0
[33]
  Anxiety score Mean (SD): 6.1 (3.98)
  Anxiety score Median: 6.0
[34]
  Anxiety score Mean (SD): 6.1 (3.85)
  Anxiety score Median: 6.0
[35]
  Anxiety score Mean (SD): 5.5 (5.46)
  Anxiety score Median: 4.0
[36]
  Anxiety score Mean (SD): 5.9 (4.46)
  Anxiety score Median: 5.0
[37]
  Anxiety score Mean (SD): 4.7 (3.21)
  Anxiety score Median: 4.0
Visit 10, total subjects N=175
  Anxiety score Mean (SD): 5.6 (4.16)
  Anxiety score Median: 5.0
[38]
  Anxiety score Mean (SD): 5.9 (3.84)
  Anxiety score Median: 5.5
[39]
  Anxiety score Mean (SD): 6.3 (4.25)
  Anxiety score Median: 6.5
[40]
  Anxiety score Mean (SD): 5.1 (4.25)
  Anxiety score Median: 4.0
[41]
  Anxiety score Mean (SD): 5.6 (3.96)
  Anxiety score Median: 5.0
[42]
  Anxiety score Mean (SD): 4.8 (3.77)
  Anxiety score Median: 4.0
Visit 11, total subjects N=175
  Anxiety score Mean (SD): 5.4 (3.91)
  Anxiety score Median: 5.0
Visit 12
  Anxiety score change from baseline Mean (SD): −3.1 (3.16)
  Anxiety score change from baseline Median: −3.0
Visit 12, defined neuropathic
  Anxiety score change from baseline Mean (SD): −2.3 (4.14)
  Anxiety score change from baseline Median: −2.0
[43]
  Anxiety score Mean (SD): 5.7 (3.80)
  Anxiety score Median: 5.0
Visit 12, lumbar radiculopathy
  Anxiety score change from baseline Mean (SD): −2.2 (4.11)
  Anxiety score change from baseline Median: −2.0
Visit 12, nociceptive
  Anxiety score change from baseline Mean (SD): −0.8 (2.82)
  Anxiety score change from baseline Median: −1.0
[44]
  Anxiety score Mean (SD): 5.7 (3.59)
  Anxiety score Median: 6.0
[45]
  Anxiety score Mean (SD): 4.8 (3.67)
  Anxiety score Median: 4.0
[46]
  Anxiety score change from baseline Mean (SD): −2.5 (3.85)
  Anxiety score change from baseline Median: −2.0
[47]
  Anxiety score Mean (SD): 5.4 (3.76)
  Anxiety score Median: 5.0
[48]
  Anxiety score Mean (SD): 4.5 (3.65)
  Anxiety score Median: 3.0
Visit 12, total
  Anxiety score change from baseline Mean (SD): −2.1 (3.67)
  Anxiety score change from baseline Median: −2.0
Visit 12, total subjects N=175
  Anxiety score Mean (SD): 5.2 (3.73)
  Anxiety score Median: 4.0
Conclusion from the clinical data
  efficacy against anxiety: significant efficacy
